The record followed here is patent US20140121231A1, “PYRANOPYRIDONE INHIBITORS OF TANKYRASE” (Hoffmann-La Roche, Inc., priority 2012, published 2014).

Structures are written as SMILES. pIC50: −log10 of the molar value. Counter-ions that a name gives are not always drawn. Some results are limits rather than exact numbers.

One experiment has as its target T1, Tankyrase 1 (TNKS1) (Homo sapiens, UniProt O95271).
T1 construct: His6-TNKS1, MW=28.2 KDa (construct: 1088-1327, 1266M)
Put plainly: μHTS-TNKS-IWR2 TR-FRET Binding Assay (Example 71), TNKS1. The protocol:
(§1) μHTS-TNKS-IWR2 TR-FRET Binding Assay (10 μL/well in BD1536-well plate, a single point)
(§2) Assay buffer 1a (AB1a) for TNKS dilution: 50 mM Tris, pH 7.4, 100 mM sodium chloride solution, 1 mM magnesium chloride solution, 1 mM DL-dithiothreitol solution, 0.2 mg/mL bovine serum albumin solution, 0.025% NP-40. Assay buffer 1b (AB 1b) for Biotin-IWR2 dilution: 50 mM Tris, pH 7.4, 100 mM sodium chloride solution, 1 mM magnesium chloride solution, 1 mM DL-dithiothreitol solution, 0.2 mg/mL bovine serum albumin solution, 0.05% NP-40 Assay buffer 1c (AB 1c) for compound dilution: 50 mM Tris, pH 7.4, 100 mM sodium chloride solution, 1 mM magnesium chloride solution, 1 mM DL-dithiothreitol solution, 0.2 mg/mL bovine serum albumin solution Assay buffer 2 (AB2) for Eu/APC: 50 mM Tris, pH 7.4, 100 mM sodium chloride solution, 1 mM magnesium chloride solution, 0.2 mg/mL bovine serum albumin solution
(§3) Transfer 3 μL/well of above solution (solution 1,2,3) to an empty assay plate (BD1536-well plate) as follows: TOTAL and cpd wells: Solution 1 (Biotin-IWR2): BLANK wells: Solution 2 (No Biotin-IWR2): POSITIVE CONTROL wells: Solution 3 (Biotin-IWR2XAV939) Transfer 3 μL/well of the above diluted compound solutions or compound dilution buffer to the above assay plate. Add 2 μL/well of 300 nM TNKS stock solution (4) to every well in the above assay plate. Centrifuge the assay plate at 2100 rpm for 2 min. Incubate the assay plate at 26° C. for 30 minutes. Add 2 μL/well 3.5 nMEu/50 nM APC solution (5) to every well in the above assay plate. Centrifuge the assay plate at 2100 rpm for 2 min. Incubate the assay plate at 26° C. for 60 min.

The target of experiment [1] is T2, PARP1 (His6-PARP1, full length) (Homo sapiens, UniProt P09874).
T2 construct: His6-PARP1 (full length) can be substituted for His6-TNKS 1
The experiment in a line: TR-FRET Binding Assay (Example 71), PARP1. Conditions: TR-FRET assay of Example 71 with His6-PARP1. The protocol: as §1
Tankyrase 1 (TNKS1): 184.3 μM=5.2 mg/mL His6-TNKS1, MW=28.2 KDa (construct: 1088-1327, 1266M) in 20 mM Tris pH 8, 150 mM NaCl, 10% glycerol, and 0.5 mM TCEP. Alternatively, His6-tankyrase 2 (construct: 934-1166) (His6-TNKS2) or His6-PARP1 (full length) can be substituted for His6-TNKS 1.
as §2
Prepare Biotinylated IWR2 stock solution (3.33× stock) for TOTL and compound wells: 200 nM Biotin-IWR2 in 5% DMSO/AB1b buffer
Prepare BLANK well stock solution: 5% DMSO/AB1b buffer Prepare POSITIVE CONTROL well stock solution (3.33× stock): 200 nM XAV939 in 200 nM Biotin-IWR2/5% DMSO/AB1b buffer Prepare TNKS1 stock solution (5× stock): 300 nM TNKS in AB1a buffer. (Alternatively, use TNKS2 or PARP1 stock solutions.) Prepare Eu/APC stock solution (5× stock): 3.5 nM Eu-SA/50 nM APC-His6Ab in AB2 buffer.
Add 25 μL/well 1.5% DMSO/AB1c buffer in each compound well to the compound concentration at 74 μM in 8.8% DMSO/AB1c buffer or in the 2 μL DMSO CONTROL wells (BLANK, TOTAL and POSITIVE wells) in the compound plate. Transfer 3 μL/well of above solution (solution 1,2,3) to an empty assay plate (BD1536-well plate) as follows: TOTAL and cpd wells: Solution 1 (Biotin-IWR2): BLANK wells: Solution 2 (No Biotin-IWR2): POSITIVE CONTROL wells: Solution 3 (Biotin-IWR2XAV939) Transfer 3 μL/well of the above diluted compound solutions or compound dilution buffer to the above assay plate. Add 2 μL/well of 300 nM TNKS stock solution (4) to every well in the above assay plate. Centrifuge the assay plate at 2100 rpm for 2 min. Incubate the assay plate at 26° C. for 30 minutes. Add 2 μL/well 3.5 nMEu/50 nM APC solution (5) to every well in the above assay plate. Centrifuge the assay plate at 2100 rpm for 2 min. Incubate the assay plate at 26° C. for 60 min. Read the assay plate immediately at excitation wavelength of 330 nm and emission wavelength of […] in time resolved fluorescence mode.
. Representative compound data for the PARP1 assay is in TABLE 2 (below) Values are in μM.

The target in another experiment is T3, tankyrase 2 (His6-TNKS2) (Homo sapiens, UniProt Q9H2K2).
T3 construct: His6-tankyrase 2 (construct: 934-1166) (His6-TNKS2)
Put plainly: μHTS-TNKS-IWR2 TR-FRET Binding Assay (Example 71), TNKS2. Conditions: footnote 1: Tankyrase 1 and 2 inhibition assay in Example 71 (TR-FRET). As to the method: as §1
Biotin-4-((1S,2R,6S,7R)-3,5-Dioxo-4-aza-tricyclo[5.2.1.0*2,6*]dec-8-en-4-yl)-N-(4-methyl-quinolin-8-yl)-benzamide (Biotin-IWR2): 10 mM Biotin-IWR2 stock in DMSO, stored at −20° C. Positive control: 10 mM 2-(4-Trifluoromethyl-phenyl)-3,5,7,8-tetrahydro-thiopyrano[4,3-d]pyrimidin-4-one (XAV939) in DMSO, stored at −20° C.
as §2, §3

T3 sequence (Q9H2K2 934-1166): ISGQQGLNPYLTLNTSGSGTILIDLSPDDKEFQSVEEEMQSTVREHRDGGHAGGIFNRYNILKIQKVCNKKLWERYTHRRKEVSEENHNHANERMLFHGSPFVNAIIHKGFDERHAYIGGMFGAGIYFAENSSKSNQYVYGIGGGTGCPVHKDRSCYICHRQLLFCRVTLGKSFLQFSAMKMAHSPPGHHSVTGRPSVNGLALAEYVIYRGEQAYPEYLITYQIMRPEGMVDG
T2 sequence (P09874 whole entry, species assumed): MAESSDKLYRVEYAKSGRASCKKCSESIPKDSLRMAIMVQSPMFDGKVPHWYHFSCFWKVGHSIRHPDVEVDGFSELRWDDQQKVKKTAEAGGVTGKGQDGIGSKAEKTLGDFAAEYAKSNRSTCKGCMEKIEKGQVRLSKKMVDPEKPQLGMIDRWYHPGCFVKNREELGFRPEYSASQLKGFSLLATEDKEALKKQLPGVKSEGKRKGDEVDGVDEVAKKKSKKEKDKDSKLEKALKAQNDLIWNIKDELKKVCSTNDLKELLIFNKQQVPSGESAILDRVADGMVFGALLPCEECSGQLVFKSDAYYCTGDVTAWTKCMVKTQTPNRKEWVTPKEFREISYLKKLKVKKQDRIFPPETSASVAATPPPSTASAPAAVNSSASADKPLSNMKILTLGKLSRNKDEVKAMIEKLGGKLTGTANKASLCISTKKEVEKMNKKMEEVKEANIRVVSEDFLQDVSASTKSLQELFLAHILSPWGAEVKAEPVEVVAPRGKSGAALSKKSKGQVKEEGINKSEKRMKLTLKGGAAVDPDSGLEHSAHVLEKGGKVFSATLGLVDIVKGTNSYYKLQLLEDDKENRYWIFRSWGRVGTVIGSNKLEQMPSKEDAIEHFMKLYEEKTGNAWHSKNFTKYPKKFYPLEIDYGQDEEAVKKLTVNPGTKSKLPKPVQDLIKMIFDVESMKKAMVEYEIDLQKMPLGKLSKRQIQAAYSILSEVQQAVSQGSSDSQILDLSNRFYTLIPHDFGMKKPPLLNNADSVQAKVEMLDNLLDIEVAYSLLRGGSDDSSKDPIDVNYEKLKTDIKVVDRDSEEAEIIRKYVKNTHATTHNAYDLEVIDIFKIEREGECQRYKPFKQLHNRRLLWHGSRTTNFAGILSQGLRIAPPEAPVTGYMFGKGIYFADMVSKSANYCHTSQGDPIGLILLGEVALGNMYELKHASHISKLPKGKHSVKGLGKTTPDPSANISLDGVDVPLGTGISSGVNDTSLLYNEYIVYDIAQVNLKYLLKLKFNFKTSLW
T1 sequence (O95271 1088-1327): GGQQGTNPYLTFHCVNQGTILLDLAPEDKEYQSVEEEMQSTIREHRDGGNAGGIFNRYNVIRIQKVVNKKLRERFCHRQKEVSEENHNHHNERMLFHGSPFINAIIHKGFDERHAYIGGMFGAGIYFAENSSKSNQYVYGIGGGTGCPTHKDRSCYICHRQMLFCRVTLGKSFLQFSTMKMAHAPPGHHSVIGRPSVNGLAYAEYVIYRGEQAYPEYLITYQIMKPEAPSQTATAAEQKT

`O=C(C1CC1)N1CCC(C2Cc3[nH]c(=O)c4ccccc4c3CO2)C1` (stereo not drawn) [Compound I-44, 2-(1-Cyclopropanecarbonyl-pyrrolidin-3-yl)-1,2,4,10-tetrahydro-3-oxa-10-aza-phenanthren-9-one]: the negative-log IC50 (pIC50) at Tankyrase 1 (TNKS1) is 7.37; in experiment [1] it was 7.17; at tankyrase 2 (His6-TNKS2), 7.18.
In the same order, the values of `Cc1ccc2c(=O)[nH]c3c(c2n1)COC(C(C)(C)C)C3` (racemic) [Compound I-49, rac-2-tert-Butyl-6-methyl-1,2,4,10-tetrahydro-3-oxa-5,10-diaza-phenanthren-9-one] are 6.29, 5.52 and 7.11.
In the same order, the values of `Cc1cccc2c(=O)[nH]c3c(c12)COC(C1CCN(C(=O)OC(C)(C)C)CC1)C3` (racemic) [Compound I-62, rac-4-(5-Methyl-9-oxo-1,4,9,10-tetrahydro-2H-3-oxa-10-aza-phenanthren-2-yl)-piperidine-1-carboxylic acid tert-butyl ester] are 7.58, 7.42 and 7.63.
The like results for `CC(C)C1Cc2[nH]c(=O)c3ccc(N)cc3c2CO1` (racemic) [Compound I-24, rac-6-Amino-2-isopropyl-1,2,4,10-tetrahydro-3-oxa-10-aza-phenanthren-9-one] were, in that order, 6.33, 7.20 and 5.89.
As to `CC(=O)N1CCC(C2Cc3[nH]c(=O)c4ccccc4c3CO2)C1` (stereo not drawn) [Compound I-37, 2-(1-Acetyl-pyrrolidin-3-yl)-1,2,4,10-tetrahydro-3-oxa-10-aza-phenanthren-9-one], the negative logarithm of the IC50 (pIC50) is 7.30 at Tankyrase 1 (TNKS1), 6.98 in experiment [1] and 7.17 at tankyrase 2 (His6-TNKS2).
In the same order, the values of `CC(C)C1Cc2[nH]c(=O)c3ccc(Cl)cc3c2CO1` (racemic) [Compound I-27, rac-6-Chloro-2-isopropyl-1,2,4,10-tetrahydro-3-oxa-10-aza-phenanthren-9-one] are 7.41, 6.71 and 7.27.
For the compound `CC(C)(O)c1ccc2c(=O)[nH]c3c(c2c1)COC(C(C)(C)C)C3` (racemic) [Compound I-53, rac-2-tert-Butyl-6-(1-hydroxy-1-methyl-ethyl)-1,2,4,10-tetrahydro-3-oxa-10-aza-phenanthren-9-one], the negative logarithm of the IC50 (pIC50) on Tankyrase 1 (TNKS1) is 5.96; in experiment [1], under 4.30; on tankyrase 2 (His6-TNKS2) it was 4.86.
In the same order, the values of `O=c1[nH]c2c(c3ccccc13)COC(C1CCNCC1)C2` (racemic) [Compound I-22, rac-2-Piperidin-4-yl-1,2,4,10-tetrahydro-3-oxa-10-aza-phenanthren-9-one, trifluoroacetate] are 7.05, under 4.30 and 6.96.
As to `CC(C)(C)C1Cc2[nH]c(=O)c3cnccc3c2CO1` (racemic) [Compound I-43, rac-7-tert-Butyl-5,7,8,9-tetrahydro-6-oxa-2,9-diaza-phenanthren-10-one], the pIC50 on Tankyrase 1 (TNKS1) was 7.36; in experiment [1] it was 6.06; at tankyrase 2 (His6-TNKS2), 7.31.
The like results for `CS(=O)(=O)N1CCC(C2Cc3[nH]c(=O)c4ccccc4c3CO2)CC1` (racemic) [Compound I-26, rac-2-(1-Methanesulfonyl-piperidin-4-yl)-1,2,4,10-tetrahydro-3-oxa-10-aza-phenanthren-9-one] were, in that order, 7.32, 7.01 and 7.26.
The like results for `CC(C)C1Cc2[nH]c(=O)c3ccc([N+](=O)[O-])cc3c2CO1` (racemic) [Compound I-16, rac-2-Isopropyl-6-nitro-1,2,4,10-tetrahydro-3-oxa-10-aza-phenanthren-9-one] were, in that order, 6.39, 7.45 and 5.57.
The like results for `O=c1[nH]c2c(c3ccccc13)COCC2` [Compound I-3, 1,2,4,10-Tetrahydro-3-oxa-10-aza-phenanthren-9-one] were, in that order, 6.38, 6.55 and 6.20.
With `CC(C)(C)OC(=O)N1CCC([C@@H]2Cc3[nH]c(=O)c4ccccc4c3CO2)CC1` (single isomer, unassigned) [Compound I-54], the figures for the pIC50 (at Tankyrase 1 (TNKS1); in experiment [1]; at tankyrase 2 (His6-TNKS2)) were 7.67, 6.94 and 7.59, respectively.
The like results for `CC(C)(COCc1ccccc1)C1Cc2[nH]c(=O)c3ccccc3c2CO1` (racemic) [Compound I-29, rac-2-(2-Benzyloxy-1,1-dimethyl-ethyl)-1,2,4,10-tetrahydro-3-oxa-10-aza-phenanthren-9-one] were, in that order, 7.17, 6.90 and 6.95.
On to `CC(C)(C)C1Cc2[nH]c(=O)c3cccnc3c2CO1` (racemic) [Compound I-48, rac-2-tert-Butyl-1,2,4,10-tetrahydro-3-oxa-5,10-diaza-phenanthren-9-one], for which the figures for the negative logarithm of the IC50 (pIC50) (at Tankyrase 1 (TNKS1); in experiment [1]; at tankyrase 2 (His6-TNKS2)) were 7.46, 6.36 and 7.26, respectively.
In the same order, the values of `O=c1[nH]c2c(c3ccccc13)CO[C@@H](C1CCCC1)C2` (single isomer, unassigned) [Compound I-12] are 7.80, 7.51 and 7.71.
In the case of `CC1(C2Cc3[nH]c(=O)c4ccccc4c3CO2)COC1` (racemic) [Compound I-65, rac-2-(3-Methyl-oxetan-3-yl)-1,2,4,10-tetrahydro-3-oxa-10-aza-phenanthren-9-one], the pIC50 was 7.09 on Tankyrase 1 (TNKS1), 7.37 in experiment [1] and 7.00 on tankyrase 2 (His6-TNKS2).
The like results for `CC(C)C1Cc2[nH]c(=O)c3ccncc3c2CO1` (racemic) [Compound I-14, rac-7-Isopropyl-5,7,8,9-tetrahydro-6-oxa-3,9-diaza-phenanthren-10-one] were, in that order, 7.01, 6.17 and 6.69.
The like results for `O=C(C1CCOCC1)N1CCC(C2Cc3[nH]c(=O)c4ccccc4c3CO2)CC1` (racemic) [Compound I-50, rac-2-[1-(Tetrahydro-pyran-4-carbonyl)-piperidin-4-yl]-1,2,4,10-tetrahydro-3-oxa-10-aza-phenanthren-9-one] were, in that order, 7.45, 6.98 and 7.35.
